Data taken from the NIST ThermoML archive (doi:10.1021/je9010129).

Assay: refractive index (Na D-line) (dimensionless); mn = molality of the nth substance listed, in mol/kg
Conditions: 101 kPa, Liquid, Standard Abbe refractometry

N.N.O=S(=O)(O)O [ammonium sulfate] + O
refractive index
Conditions | 288.15 K | 298.15 K | 308.15 K | 318.15 K
m1 = 0.2725 | 1.33934 | 1.33813 | 1.33696 | 1.33544
m1 = 0.3995 | 1.34174 | 1.3408 | 1.33941 | 1.33806
m1 = 0.4876 | 1.34348 | 1.34227 | 1.34098 | 1.33956
m1 = 0.8025 | 1.34905 | 1.34798 | 1.3467 | 1.34521
m1 = 1.198 | 1.35554 | 1.35434 | 1.353 | 1.35156
m1 = 1.604 | 1.3614 | 1.36025 | 1.35888 | 1.3574
m1 = 1.992 | 1.36659 | 1.36535 | 1.36402 | 1.36252
m1 = 2.381 | 1.37134 | 1.37008 | 1.36878 | 1.36733
m1 = 2.801 | 1.37588 | 1.37472 | 1.37338 | 1.37211
m1 = 3.2 | 1.38006 | 1.37873 | 1.37738 | 1.37611
m1 = 3.619 | 1.38383 | 1.38259 | 1.38126 | 1.38009
m1 = 3.997 | 1.38708 | 1.38596 | 1.38446 | 1.38325
m1 = 4.396 | 1.39018 | 1.38897 | 1.3876 | 1.38647
m1 = 4.763 | 1.39286 | 1.3917 | 1.39031 | 1.38922
m1 = 5.181 | 1.3957 | 1.39451 | 1.3932 | 1.39197
m1 = 5.6 | 1.39836 | 1.39715 | 1.39584 | 1.39461
m1 = 5.876 | – | – | 1.3975 | 1.39618
m1 = 6.328 | – | – | – | 1.3983

O=S(=O)([O-])[O-].[K+].[K+] [potassium sulfate] + O
refractive index
Conditions | 288.15 K | 298.15 K | 308.15 K | 318.15 K
m1 = 0.0456 | 1.33447 | 1.33359 | 1.33228 | 1.33072
m1 = 0.1387 | 1.33636 | 1.33552 | 1.33411 | 1.33251
m1 = 0.2502 | 1.33866 | 1.33771 | 1.33625 | 1.33466
m1 = 0.3409 | 1.34035 | 1.33945 | 1.33786 | 1.33626
m1 = 0.4174 | 1.34183 | 1.34071 | 1.33927 | 1.33763
m1 = 0.503 | 1.3433 | 1.34227 | 1.34077 | 1.33906
m1 = 0.5093 | 1.34341 | 1.3423 | 1.34084 | 1.3392
m1 = 0.5703 | 1.34451 | 1.34337 | 1.34186 | 1.34022
m1 = 0.6509 | – | 1.34476 | 1.34324 | 1.34151
m1 = 0.7435 | – | – | 1.34478 | 1.34301
m1 = 0.8106 | – | – | – | 1.34404
m1 = 0.8605 | – | – | – | 1.34488
m1 = 0.9049 | – | – | – | 1.34557

O=S(=O)([O-])[O-].[Na+].[Na+] [sodium sulfate] + O
refractive index
Conditions | 288.15 K | 298.15 K | 308.15 K | 318.15 K
m1 = 0.1002 | 1.33566 | 1.33473 | 1.33342 | 1.33185
m1 = 0.1938 | 1.33757 | 1.33653 | 1.33518 | 1.33378
m1 = 0.477 | 1.34311 | 1.34187 | 1.34052 | 1.33896
m1 = 0.7055 | 1.34719 | 1.34585 | 1.34434 | 1.34278
m1 = 0.8578 | 1.34983 | 1.34855 | 1.34695 | 1.34531
m1 = 0.9866 | – | 1.35058 | 1.34904 | 1.34742
m1 = 1.206 | – | 1.35377 | 1.3522 | 1.35057
m1 = 1.59 | – | 1.35915 | 1.35746 | 1.35598
m1 = 1.727 | – | 1.36096 | 1.35931 | 1.35778
m1 = 1.992 | – | – | 1.36271 | 1.36102
m1 = 2.237 | – | – | 1.36573 | 1.36396
m1 = 2.532 | – | – | 1.36884 | 1.36711
m1 = 2.681 | – | – | 1.37046 | 1.36857
m1 = 2.805 | – | – | 1.37172 | 1.36992
m1 = 3.053 | – | – | 1.37411 | 1.37246
m1 = 3.219 | – | – | 1.37569 | 1.37386
m1 = 3.305 | – | – | 1.37649 | 1.3747
m1 = 3.423 | – | – | 1.37756 | –

O [water] + N.N.O=S(=O)(O)O
m2 = 0
Conditions | refractive index
288.15 K | 1.33339
298.15 K | 1.33248
308.15 K | 1.33128
318.15 K | 1.32979

O [water] + O=S(=O)([O-])[O-].[K+].[K+]
m2 = 0
Conditions | refractive index
288.15 K | 1.33339
298.15 K | 1.33248
308.15 K | 1.33128
318.15 K | 1.32979

O [water] + O=S(=O)([O-])[O-].[Na+].[Na+]
m2 = 0
Conditions | refractive index
288.15 K | 1.33339
298.15 K | 1.33248
308.15 K | 1.33128
318.15 K | 1.32979
